# Patent publication US20100249132A1, “IMIDAZOLE DERIVATIVES” (MERCK PATENT GESELLSCHAFT MIT BESCHRANKTER HAFTUNG, priority 2007, published 2010)
# pIC50: −log10 of the molar value.
# Molecular target: T1, recombinant autotaxin (Homo sapiens, UniProt Q13822)
# T1 construct: made in house; host or cells: Hi5 insect cells (baculovirus)
# Experiment: Autotaxin test (enzyme test), Amplex Red fluorescence
# Type: biochemical
# Conditions: substrate LPC 75 μM, Amplex Red detection, read-out: IC50 (autotaxin inhibition, enzyme test)
# How it was run: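 Recombinant human autotaxin from baculovirus/Hi5 (16 ng) was preincubated with compound 30 min at 22 °C. Reaction with 75 μM egg LPC ran 90 min at 37 °C. Released choline was coupled via alkaline phosphatase, choline oxidase and HRP to Amplex Red, read as resorufin fluorescence (ex485/em612) in kinetic mode.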
row,SMILES,pIC50
1,"CCCCc1ccc(NC(=O)Nc2[nH]c(Cc3ccc(C(=O)O)cc3)nc2C(N)=O)cc1 [Compound A3, 4-{5-[3-(4-Butylphenyl)ureido]-4-carbamoyl-1H-imidazol-2-ylmethyl}benzoic acid]",< 5.00
2,"Cc1cc(NC(=O)Nc2[nH]c(Cc3ccc(C(=O)O)s3)nc2C(N)=O)ccc1F [Compound A73, 5-{4-Carbamoyl-5-[3-(4-fluoro-3-methylphenyl)-ureido]-1H-imidazol-2-ylmethyl}thiophene-2-carboxylic acid]",< 5.00
3,NC(=O)c1nc(CCC(=O)Nc2ccc3[nH]c(=O)oc3c2)[nH]c1NC(=O)Nc1ccc(Cl)cc1 [Compound B79],< 5.00
4,"CCCCOc1ccc(NC(=O)Nc2[nH]c(Cc3ccc(CO)cc3)nc2C(N)=O)cc1 [Compound A100, 5-[3-(4-butoxyphenyl)ureido]-2-(4-hydroxy-methylbenzyl)-1H-imidazole-4-carboxamide]",< 5.00
5,"CCCCc1ccc(NC(=O)Nc2[nH]c(Cc3ccc(C(=O)N4CCN(C)CC4)o3)nc2C(N)=O)cc1 [Compound A85, 5-[3-(4-Butylphenyl)ureido]-2-[5-(4-methyl-piperazine-1-carbonyl)furan-2-ylmethyl]-1H-imidazole-4-carboxamide]",5.00 to 6.00
6,"CCCCOc1ccc(NC(=O)Nc2[nH]c(Cc3ccc(C(=O)O)cc3)nc2C(N)=O)cc1 [Compound A9, 4-{5-[3-(4-Butoxyphenyl)ureido]-4-carbamoyl-1H-imidazol-2-ylmethyl}benzoic acid]",5.00 to 6.00
7,"NC(=O)c1nc(Cc2ccc(C(=O)O)cc2)[nH]c1NC(=O)Nc1ccc(Cl)cc1 [Compound A6, 4-{4-Carbamoyl-5-[3-(4-chlorophenyl)ureido]-1H imidazol-2-ylmethyl}benzoic acid]",5.00 to 6.00
8,"Cc1cc(Cl)ccc1NC(=O)Nc1[nH]c(Cc2ccc(C(=O)O)s2)nc1C(N)=O [Compound A74, 5-{4-Carbamoyl-5-[3-(4-chloro-2-methylphenyl)-ureido]-1H-imidazol-2-ylmethyl}thiophene-2-carboxylic acid]",5.00 to 6.00
9,NC(=O)c1nc(CN2C(=O)c3ccccc3C2=O)[nH]c1NC(=O)Nc1ccc(Cl)cc1 [Compound B78],< 5.00
10,"CC(C)c1ccccc1NC(=O)Nc1[nH]c(Cc2ccc(C(=O)O)cc2)nc1C(N)=O [Compound A92, 4-{4-Carbamoyl-5-[3-(2-isopropylphenyl)ureido]-1H-imidazol-2-ylmethyl}benzoic acid]",< 5.00
11,"NC(=O)c1nc(Cc2ccc(N)cc2)[nH]c1NC(=O)Nc1ccc(C(F)(F)F)cc1 [Compound A97, 2-(4-aminobenzyl)-5-[3-(4-trifluoromethylphenyl)-ureido]-1H-imidazole-4-carboxamide]",5.00 to 6.00
